From the supplement of paper PMC10307832

Key:
Assay in all cases: relative viability (nuclei count vs DMSO), 5 days (fraction); higher = more cells survive
NVP-TAE684 + OSI-027 = compound: COc1cc(N2CCC(N3CCN(C)CC3)CC2)ccc1Nc1ncc(Cl)c(Nc2ccccc2S(=O)(=O)C(C)C)n1 [NVP-TAE684] + COc1cccc2cc(-c3nc([C@H]4CC[C@H](C(=O)O)CC4)n4ncnc(N)c34)[nH]c12 [OSI-027] (partner 0.5 µM)
In short: (§1)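 Five library-drug doses in √10 steps were combined with a fixed anchor-drug dose, or a single drug was given alone, by pin tool to lung cancer cell lines in 1536-well plates the day after seeding. Nuclei were stained and counted after 5 days. Relative viability is the nuclei count in treated wells over that in vehicle wells, taken as the median of duplicate plates.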

NVP-TAE684 + Trametinib = compound: COc1cc(N2CCC(N3CCN(C)CC3)CC2)ccc1Nc1ncc(Cl)c(Nc2ccccc2S(=O)(=O)C(C)C)n1 [NVP-TAE684] + CC(=O)Nc1cccc(-n2c(=O)n(C3CC3)c(=O)c3c(Nc4ccc(I)cc4F)n(C)c(=O)c(C)c32)c1 [Trametinib] (partner 0.02 µM)
In short: as §1

Vandetanib + Pictilisib = compound: COc1cc2/c(=N/c3ccc(Br)cc3F)nc[nH]c2cc1OCC1CCN(C)CC1 [Vandetanib] + CS(=O)(=O)N1CCN(Cc2cc3nc(-c4cccc5[nH]ncc45)nc(N4CCOCC4)c3s2)CC1 [Pictilisib] (partner 1 µM)
In short: as §1

NVP-TAE684 + Pictilisib = compound: COc1cc(N2CCC(N3CCN(C)CC3)CC2)ccc1Nc1ncc(Cl)c(Nc2ccccc2S(=O)(=O)C(C)C)n1 [NVP-TAE684] + CS(=O)(=O)N1CCN(Cc2cc3nc(-c4cccc5[nH]ncc45)nc(N4CCOCC4)c3s2)CC1 [Pictilisib] (partner 1 µM)
In short: as §1

NVP-TAE684 + Olaparib = compound: COc1cc(N2CCC(N3CCN(C)CC3)CC2)ccc1Nc1ncc(Cl)c(Nc2ccccc2S(=O)(=O)C(C)C)n1 [NVP-TAE684] + O=C(c1cc(Cc2n[nH]c(=O)c3ccccc23)ccc1F)N1CCN(C(=O)C2CC2)CC1 [Olaparib] (partner 8 µM)
In short: as §1

| Cell Line | relative viability (NVP-TAE684 + OSI-027; first compound 0.2 µM) | relative viability (NVP-TAE684 + OSI-027; first compound 0.6325 µM) | relative viability (NVP-TAE684 + OSI-027; first compound 2 µM) | relative viability (NVP-TAE684 + Trametinib; first compound 0.2 µM) | relative viability (NVP-TAE684 + Trametinib; first compound 0.6325 µM) | relative viability (NVP-TAE684 + Trametinib; first compound 2 µM) | relative viability (Vandetanib + Pictilisib; first compound 0.02 µM) | relative viability (Vandetanib + Pictilisib; first compound 0.06325 µM) | relative viability (Vandetanib + Pictilisib; first compound 0.6325 µM) | relative viability (Vandetanib + Pictilisib; first compound 2 µM) | relative viability (NVP-TAE684 + Pictilisib; first compound 0.2 µM) | relative viability (NVP-TAE684 + Pictilisib; first compound 0.6325 µM) | relative viability (NVP-TAE684 + Pictilisib; first compound 2 µM) | relative viability (NVP-TAE684 + Olaparib; first compound 0.2 µM) | relative viability (NVP-TAE684 + Olaparib; first compound 0.6325 µM) | relative viability (NVP-TAE684 + Olaparib; first compound 2 µM) | relative viability (Vandetanib + Pictilisib; first compound 0.2 µM) |
| --- | --- | --- | --- | --- | --- | --- | --- | --- | --- | --- | --- | --- | --- | --- | --- | --- | --- |
| NCI-H1650 | 0.374 | 0.437 | 0.217 | 0.522 | 0.507 | 0.221 | 0.561 | 0.511 | 0.555 | 0.515 | 0.564 | 0.405 | 0.161 | 0.757 | 0.758 | 0.825 |  |
| HCC-827 | 0.681 | 0.743 | 0.848 | 0.478 | 0.529 | 0.442 | 0.816 | 1.02 | 0.664 | 0.355 | 1.14 | 0.84 | 0.968 | 0.697 | 0.585 | 0.668 | 0.864 |
| NCI-H2170 | 0.703 | 0.579 | 0.63 | 0.861 | 0.947 | 0.916 | 0.328 | 0.288 | 0.28 | 0.31 | 0.272 | 0.248 | 0.275 | 0.583 | 0.58 | 0.518 | 0.267 |
| NCI-H1395 | 0.712 | 0.482 | 0.567 | 1.09 | 1.15 | 0.944 | 0.687 | 0.61 | 0.697 | 0.418 | 0.659 | 0.61 | 0.589 | 0.463 | 0.422 | 0.384 | 0.656 |
| NCI-H2009 | 0.603 | 0.449 | 0.302 | 0.302 | 0.234 | 0.178 | 0.78 | 0.669 | 0.828 | 0.81 | 0.949 | 0.68 | 0.514 | 0.657 | 0.665 | 0.634 | 0.79 |
| NCI-H1437 | 0.79 |  | 0.203 | 0.523 | 0.444 | 0.225 | 0.463 | 0.419 | 0.357 | 0.481 | 0.369 | 0.433 | 0.297 | 0.65 | 0.663 | 0.523 | 0.432 |
| NCI-H2087 | 0.538 | 0.438 | 0.354 | 0.175 | 0.211 | 0.168 | 1 | 0.694 | 0.935 | 0.964 | 0.942 | 0.886 | 0.858 | 0.646 | 0.598 | 0.503 | 0.922 |
| LCLC-103H | 0.445 | 0.467 | 0.372 | 0.692 | 0.693 | 0.603 | 0.565 | 0.518 | 0.528 | 0.472 | 0.71 | 0.567 | 0.451 | 0.794 | 0.783 | 0.726 | 0.563 |
